Laboratory results published in patent US20150166476A1, “METHODS FOR TREATING NEURODEGENERATIVE DISEASES ASSOCIATED WITH AGGREGATION OF AMYLOID-BETA” (priority 2013, published 2015).
Entries after “also recorded” stand apart in the source; their conditions may differ.

Experiments:
Aβ1-40 [1] = molecular target: T1, Aβ1-40 (Homo sapiens, UniProt P05067); experiment: FT-IR spectroscopy of the secondary structure of Aβ1-40; assay type: biochemical; settings: day 1 and day 5 (FIG. 2)
T1 construct: Aβ1-40 peptide was synthesized in a solid-phase synthesizer; made in house; host or cells: chemical solid-phase peptide synthesis (no expression host)
T1 sequence (P05067 672-711 limits assumed): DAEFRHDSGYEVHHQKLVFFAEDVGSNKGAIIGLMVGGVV
Protocol: The secondary structure of Aβ1-40 with or without the compound of formula (I) was investigated using FT-IR spectrometer (Jasco, FT-IR/4100) equipped with an attenuated reflection accessory to determine the conformation of Aβ1-40 during the aggregative process. 100 μL of 0.1 mM Aβ solution was coated on ZnSe crystals and dried overnight in a desiccators at room temperature. The spectra were recorded at 1,500 to 1,800 cm^−1 with a 1 cm^−1 interval. The peak was identified from the first derivation of the IR spectrum in the amide I region, and the secondary structure was analyzed using Original 6.0 software.
It is known that during the aggregation process, the conformation of Aβ1-40 is converted to either […]. […] Results are depicted in FIG. 2.

Aβ1-40 [2] = molecular target: T1, Aβ1-40; experiment: Peptide aggregation assay (Thioflavin-T fluorescence); assay type: biochemical; settings: 25 μM Aβ1-40, 100 ng/mL compound, 37° C., day 5 (FIG. 1)
Protocol: Thioflavin-T (ThT) was used to monitor the aggregation state of Aβ1-40. 25 μM of Aβ1-40 was freshly diluted from the peptide stock solution in phosphate buffer (pH 7.4), for peptide aggregation assay. All samples containing a peptide concentration of 25 μM in the absence or presence of 100 ng/mL the compound of formula (I) and 3 μM ThT were incubated at 37° C. Samples containing either Aβ peptide only (control), or Aβ with the compound of formula (I), taking daily from day 0 to day 7, were used to measure the ThT sensitivity. The fluorescence measurement was performed on a microplate reader (FlexSTation 3, MD), with excitation and emission wavelength respectively set at 440 nm and 485 nm.
In this example, the effects of the compound of formula (I) on the aggregation of Aβ1-40 were investigated using the Th-T fluorescence assay described above in the Material and Methods section. Results are depicted in FIG. 1.

Aβ1-40 [3] = molecular target: T1, Aβ1-40; experiment: Free radical assay (DCFH-DA), cell free; assay type: biochemical; settings: 25 μM Aβ1-40, versus Aβ1-40 alone (FIG. 4)
Protocol: The level of free radicals (H2O2) induced by Aβ1-40 peptide in cell free conditions was analyzed using the dichlorofluorescein diacetate (DCFH-DA) assay. DCF-DA was deacetylated with 50% (v/v) 0.05 M NaOH for 30 min and neutralized (pH 7.5) to a final concentration of 200 μM as a stock solution. This stock solution was kept on ice in the dark until future use. The reactions were carried out in a 96-well plate (200 μL/well) containing 25 μM of Aβ1-40 diluted from the stock solution, 20 μM deacetylated DCF, 5 μM horseradish peroxidase, in Dulbecco's phosphate-buffered saline, pH 7.5. To determine the inhibitory effects of the compound of formula (I) on free radical formation, various concentrations of the compound of formula (I) were added and incubated at 37° C. Fluoresence readings were recorded on a microplate reader (FlexSTation 3, MD) with the excitation wavelength of 485 nm and the emission wavelength of 530 nm. The fluorescence intensity of DCF (H2O2 level) was measured every 6 hr and from 0 to 72 hr.

SH-SY5Y cells = experiment: Cell viability assay (WST-1), Aβ1-40 induced cell death; assay type: cell-based, Human; settings: for effect on Aβ1-40 induced cell death (cell viability): 25 μM Aβ1-40, 24 hr, compound at concentration below 100 ng/mL (FIG. 3)
Protocol: Human […] SH-SY5Y cells were cultured in minimum essential medium supplemented with 10% (v/v) heat-inactivated fetal bovine serum, 50% (v/v) F-12 nutrient mixture, and 1% (v/v) antibiotic mixture comprised of penicillin and streptomycin. Cells were kept at 37° C. in a humidified atmosphere of 5% CO2. SH-SY5Y cells were plated at a density of 1×10^5 viable cells per well in 96-well plates for future analysis.
The cell viability was determined by the WST-1 assay. […] of Aβ1-40 peptide stock solution were prepared by dissolving 1 mg Aβ1-40 in 1 mL trifluoroethanol and centrifuging to remove any insoluble particles. The peptide solution was then dried under nitrogen gas and re-dissolved in dimethyl sulfoxide, and incubated at 4° C. for 12 hr to provide the final peptide stock solution. For the viability assay, cells (1×10^5 cells/well in a 96-well microtiter plate) were treated with either 25 μM Aβ peptides only (as a positive control), or with the combination of 25 μM Aβ peptides and the compound of formula (I), in a concentration ranged from 1 to 1,000 ng/mL. The reaction was performed in a total volume of 200 μL per well for 24 hr at 37° C. in a humidified atmosphere containing 5% CO2 before cell viability was assayed. The WST-1 solution (10 μL) was added to each well, and the wells were incubated for another 4-5 hr at room temperature. The optical density was measured at 405 nm using a microplate reader.
In this example, the effects of compounds of formula (I) on Aβ1-40 induced cell toxicity were investigated by cell viability assay.

| SMILES | conformation of Aβ1-40 (FT-IR, 1650 cm^−1 random coil vs 1625 cm^−1 β-sheet) (Aβ1-40 [1]) | effect on the aggregation of Aβ1-40 (Th-T fluorescence intensity) (Aβ1-40 [2]) | Aβ1-40 induced free radical levels (DCF fluorescence intensity) (Aβ1-40 [3]) | effect on Aβ1-40 induced cell death (cell viability) (SH-SY5Y cells) | cell survival rate (SH-SY5Y cells; 25 μM Aβ1-40, 1 ng/mL compound) [%] | cell survival rate (SH-SY5Y cells; 25 μM Aβ1-40, 100 ng/mL compound) [%] | cell survival rate (SH-SY5Y cells; 25 μM Aβ1-40, 1,000 ng/mL compound) [%] |
| --- | --- | --- | --- | --- | --- | --- | --- |
| CC1=C(SCCC(=O)O)C(=O)c2ccccc2C1=O [VK3-6] | remained mostly in random coil conformation | capable of preventing Aβ1-40 from aggregation; also recorded: most potent | – | – | – | – | – |
| CC1=C(SCCCCCCCCCCCO)C(=O)c2ccccc2C1=O [VK3-5] | converted to β-sheet structure | capable of enhancing the aggregation of Aβ1-40 | effectively inhibited | smaller effects | – | – | – |
| CC1=C(O)C(=O)c2ccccc2C1=O [VK3-221] | remained mostly in random coil conformation | capable of preventing Aβ1-40 from aggregation | – | smaller effects | – | – | – |
| O=C1C(SCC(O)CO)=C(SCC(O)CO)C(=O)c2ccccc21 (centres unmarked) [VK3-232] | – | – | – | no difference from that of the control | – | – | – |
| CC1=C(SCCCCCCO)C(=O)c2ccccc2C1=O [VK3-4] | – | capable of enhancing the aggregation of Aβ1-40 | – | smaller effects | – | – | – |
| O=C1C=C(SCCO)C(=O)c2ccccc21 [VK3-199] | remained mostly in random coil conformation | capable of preventing Aβ1-40 from aggregation | resulted even more free radicals as compared with the control | smaller effects | – | – | – |
| CC1=C(NCCN2CCOCC2)C(=O)c2ccccc2C1=O [VK3-224] | remained mostly in random coil conformation | capable of preventing Aβ1-40 from aggregation | – | no difference from that of the control | – | – | – |
| CC1=C(SCC(O)CO)C(=O)c2ccccc2C1=O (centres unmarked) [VK3-9] | remained mostly in random coil conformation | capable of preventing Aβ1-40 from aggregation; also recorded: most potent | effectively inhibited | exhibited the ability of preventing Aβ1-40 induced cell death | 50 | 88 | 92 |
| CC1=C(SCCO)C(=O)c2ccccc2C1=O [VK3-1] | converted to β-sheet structure | capable of enhancing the aggregation of Aβ1-40 | resulted even more free radicals as compared with the control | smaller effects | – | – | – |
| CC1=C(SCCCCO)C(=O)c2ccccc2C1=O [VK3-3] | converted to β-sheet structure | – | resulted even more free radicals as compared with the control | smaller effects | – | – | – |
| CC1=C(SCC(C)O)C(=O)c2ccccc2C1=O (centres unmarked) [VK3-8] | remained mostly in random coil conformation | capable of preventing Aβ1-40 from aggregation | resulted even more free radicals as compared with the control | smaller effects | – | – | – |
| CC1=C(SCCCO)C(=O)c2ccccc2C1=O [VK3-2] | remained mostly in random coil conformation | capable of preventing Aβ1-40 from aggregation | resulted even more free radicals as compared with the control | smaller effects | – | – | – |
| O=C1C(SCCCCCCO)=C(SCCCCCCO)C(=O)c2ccccc21 [VK3-233-2d] | converted to β-sheet structure | capable of enhancing the aggregation of Aβ1-40 | resulted even more free radicals as compared with the control | no difference from that of the control | – | – | – |
| O=C1C(SCCO)=C(SCCO)C(=O)c2ccccc21 [VK3-231] | – | – | resulted even more free radicals as compared with the control | smaller effects | – | – | – |
